Some test systems named below: HCT-15; NCI-H522; LOX IMVI; HCC 2998; RPMI-8226; SW-620; SNB-75; SK-MEL-28; K562; SK-MEL-2; NCI-H226; HT-29; IGROV-1; HL-60.
Assay in all cases: NCI-60 cell line screen, 48 h

This is an account of results in ChEMBL document CHEMBL1201862, “PubChem BioAssay data set” (2004).

Molecules are shown by their SMILES.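 Exposure lasted 48 hours, with cells grown in 96-well plates and compounds tested at five concentrations. The concentration for 50% growth inhibition is given as GI50.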 The source made the active and inactive calls. No stated cut-off is given here; in the data, active = GI50 up to about 1.1 µM and inactive = higher.

Regarding `CCCN(CCC)c1c([N+](=O)[O-])cc(S(N)(=O)=O)cc1[N+](=O)[O-]` [ORYZALIN], the GI50 was 17.5 µM in the assay with HCT-15; 16.7 µM (inactive) in the assay with NCI-H522; 17.5 µM (inactive) in the assay with LOX IMVI; 18.5 µM (inactive) in the assay on HCC 2998; 26.7 µM (inactive) with RPMI-8226; 20.7 µM (inactive) with SW-620. The GI50 was 18.3 µM (inactive) with SNB-75; 20.7 µM (inactive) with SK-MEL-28; 13.5 µM (inactive) in the assay on K562; 16.4 µM (inactive) in the assay on SK-MEL-2; 23.7 µM (inactive) with NCI-H226; 18.5 µM (inactive) in the assay with HT-29. Also, the GI50 in the assay with IGROV-1 was 7.29 µM (inactive).
As for `Oc1ccc2occ3c2c1CCC3`, the GI50 was above 100 µM in the assay on HCT-15; > 100 µM (inactive) with LOX IMVI; > 100 µM (inactive) in the assay on HCC 2998; 98.4 µM (inactive) in the assay with RPMI-8226; > 100 µM (inactive) in the assay on SW-620; > 100 µM (inactive) in the assay on SNB-75. For the same molecule, the GI50 with HL-60 was 44.4 µM (inactive); with SK-MEL-28, > 100 µM (inactive); in the assay on K562 it was 65.8 µM (inactive); in the assay on HT-29 it was > 100 µM (inactive); in the assay with IGROV-1 it was > 100 µM (inactive).
On to `Cc1ccc(-n2cc(/C(N)=N/O)c3ccccc3c2=O)cc1`, for which the GI50 is above 100 µM in the assay on HCT-15; > 100 µM (inactive) in the assay on NCI-H522; > 100 µM (inactive) in the assay with LOX IMVI; > 100 µM (inactive) with HCC 2998; > 100 µM (inactive) with RPMI-8226; > 100 µM (inactive) in the assay on SW-620. In addition, the GI50 with HL-60, in the assay with SK-MEL-28, in the assay with K562, with NCI-H226, in the assay on HT-29 and in the assay with IGROV-1 was > 100 µM (inactive) throughout.
`COc1ccccc1/C=C(\NC(=O)c1ccccc1)c1nc2ccccc2[nH]1`: the GI50 in the assay on HCT-15 is above 100 µM; in the assay on NCI-H522, 30.3 µM (inactive); in the assay with LOX IMVI, 52.4 µM (inactive); with RPMI-8226 it was 17.6 µM (inactive); in the assay with SW-620 it was 47 µM (inactive); in the assay with SNB-75 it was 31.5 µM (inactive). Moreover, the GI50 in the assay with SK-MEL-28 was 36.9 µM (inactive); in the assay with K562 it was 32.9 µM (inactive); with SK-MEL-2 it was 27.4 µM (inactive); with HT-29, 44.1 µM (inactive); with IGROV-1, 32.8 µM (inactive).
In the case of `Cc1c[nH]c2c1C13CC1CN(C(=O)c1cc4cc(NC(=O)c5cc6ccccc6o5)ccc4[nH]1)C3=CC2=O` (stereo not given), the GI50 in the assay with HCT-15 was below 0.001 µM; in the assay with NCI-H522, < 0.001 µM (active); in the assay with LOX IMVI it was < 0.001 µM (active); in the assay on HCC 2998, < 0.001 µM (active); with SW-620, < 0.001 µM (active); with SNB-75, < 0.001 µM (active). The GI50 in the assay with SK-MEL-28, in the assay on K562, in the assay with SK-MEL-2, in the assay on NCI-H226 and in the assay on HT-29 was < 0.001 µM (active) in each case.
Take `O=C1C(c2ccccc2)=C(c2ccccc2)C(c2ccc(Sc3ccc(C4=C(c5ccccc5)C(=O)C(c5ccccc5)=C4c4ccccc4)cc3)cc2)=C1c1ccccc1`: the GI50 in the assay with HCT-15 is above 100 µM; with NCI-H522, > 100 µM (inactive); in the assay on LOX IMVI, > 100 µM (inactive); in the assay with RPMI-8226, > 100 µM (inactive); with SW-620, > 100 µM (inactive); in the assay on SNB-75, 31.3 µM (inactive). The GI50 in the assay with HL-60, in the assay on K562, in the assay on SK-MEL-2, in the assay on NCI-H226, with HT-29 and in the assay on IGROV-1 was > 100 µM (inactive) throughout.
